“Also recorded” adds a separate entry of the source.
Tested on: subjects with chronic hand eczema
Assay: phase 2a clinical trial, twice daily topical ointment 30 mg/g vs ointment vehicle for 8 weeks
Assay type: in vivo, human
Protocol: The invention provides a clinical trial to compare efficacy of twice daily topical ointment with 30 mg/g of the compound of formula (I), with an ointment vehicle for 8 weeks in the treatment of hand eczema. The compound of formula (I) is formulated in an ointment containing the active compound in 30 mg/g, white soft paraffin, hard paraffin and squalane. Dosis range will be a thin layer covering the affected areas on the hands corresponding to 1.7 mg/cm^2 of the compound of formula (I). The primary efficacy parameter for ‘treatment success’ is Physician's Global Assessment of disease severity (PGA). […] Patient's Global Assessment of disease severity (PaGA) was recorded at the same visits. • 1. […] In overall good health including well controlled diseases (e.g. hypertension, diabetes and thyroid disease) as determined by medical history, physical examination, electrocardiogram (ECG), vital signs (blood pressure, heart rate and body temperature) and clinical laboratory evaluation. […]

With `C[C@H]1CN(C(=O)CC#N)[C@]12CCN(c1ncnc3[nH]ccc13)C2` [compound of formula (I), 3-[(3S,4R)-3-methyl-6-(7H-pyrrolo[2,3-d]pyrimidin-4-yl)-1,6-diazaspiro[3.4]octan-1-yl]-3-oxopropanenitrile] the ““treatment success” according to Physician's Global Assessment of disease severity (PGA)” value (ointment 30 mg/g twice daily topical vs ointment vehicle, up to 8 weeks, prespecified analysis at week 8, subjects with chronic hand eczema) was “resulted in “treatment success”; also recorded: statistically significant (P=0.009) difference in favor” and the safety and tolerability (ointment 30 mg/g, twice daily topical, patients with hand eczema) was “safe and well tolerated”.

Reference: patent US20260216193A1, “TREATMENT OF HAND ECZEMA” (LEO Pharma A/S, priority 2016, published 2026)
